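Results reflect a 48-hour exposure of cells in 96-well plates to compound at five concentrations. TGI: concentration producing complete growth inhibition.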
Assays:
Test in all cases: NCI anticancer screen, dose series, 48 h
[1] = tested on: OVCAR-8 ovarian
[2] = tested on: SF-268 CNS
[3] = tested on: K-562 leukemia
[4] = tested on: SK-MEL-2 melanoma
[5] = tested on: RXF 393 renal
[6] = tested on: CCRF-CEM leukemia
[7] = tested on: SK-MEL-28 melanoma
[8] = tested on: IGROV1 ovarian
[9] = tested on: U251 CNS
[10] = tested on: A498 renal
[11] = tested on: NCI-H460 lung
[12] = tested on: A549 NSCLC
[13] = tested on: KM20L2 colon
[14] = tested on: COLO 205 colon
[15] = tested on: OVCAR-4 ovarian
[16] = tested on: DMS 273 small cell lung
[17] = tested on: SNB-19 CNS
[18] = tested on: UO-31 renal
[19] = tested on: DMS 114 small cell lung
[20] = tested on: LOX IMVI melanoma

Row | SMILES | TGI [1] [µM] | TGI [2] [µM] | TGI [3] [µM] | TGI [4] [µM] | TGI [5] [µM] | TGI [6] [µM] | TGI [7] [µM] | TGI [8] [µM] | TGI [9] [µM] | TGI [10] [µM] | TGI [11] [µM] | TGI [12] [µM] | TGI [13] [µM] | TGI [14] [µM] | TGI [15] [µM] | TGI [16] [µM] | TGI [17] [µM] | TGI [18] [µM] | TGI [19] [µM] | TGI [20] [µM]
1 | CN(C)C(=O)OCOC(=O)N(C)C | > 100 | > 100 | > 100 | > 100 | > 100 | > 100 | > 100 | > 100 | > 100 | > 100 | > 100 | > 100 | > 100 | > 100 | > 100 | > 100 | > 100 | > 100 | > 100 | > 100
2 | CCOC(=O)c1csc(NC(=O)C(C)N2CCCCC2)n1 (stereo not drawn) | > 100 | – | > 100 | > 100 | > 100 | > 100 | > 100 | > 100 | > 100 | > 100 | > 100 | > 100 | – | > 100 | > 100 | – | > 100 | > 100 | – | > 100
3 | OCC1OC(n2cnc3c2NC=NC[C@H]3O)C(O)C1O (stereo partly drawn) | > 450 | > 450 | > 284 | > 450 | > 450 | > 284 | > 450 | > 450 | > 450 | > 450 | > 450 | > 450 | > 450 | > 450 | > 450 | > 450 | > 450 | > 450 | > 450 | > 450
4 | COC(=O)C1OC(Oc2cc(O)c3c(=O)cc(-c4ccc(O)cc4)oc3c2)C(O)C(O)C1O (stereo not drawn) | > 100 | > 100 | > 100 | > 100 | > 100 | > 100 | > 100 | > 100 | > 100 | > 100 | > 100 | > 100 | > 100 | > 100 | > 100 | > 100 | > 100 | > 100 | > 100 | > 100
5 | O=C1NC(=O)C(CCO)(c2ccccc2)C(=O)N1 | > 100 | > 100 | > 100 | > 100 | > 100 | > 100 | > 100 | > 100 | > 100 | > 100 | > 100 | > 100 | > 100 | > 100 | > 100 | > 100 | > 100 | > 100 | > 100 | > 31.6
6 | CCOC(=O)CC1CCN(C(=O)c2ccccc2)C2Cc3c([nH]c4ccccc34)C12C[N+](=O)[O-] (stereo not drawn) | > 100 | > 100 | > 100 | > 100 | > 100 | 51.3 | > 100 | > 100 | > 100 | > 100 | > 100 | – | – | > 100 | > 100 | – | – | > 100 | – | > 100
7 | COC(=O)c1ccc(/C=C2\N=C(C)OC2=O)cc1 | > 100 | > 100 | > 100 | – | – | > 100 | > 100 | > 100 | > 100 | > 100 | > 100 | > 100 | > 100 | > 100 | > 100 | > 100 | > 100 | – | > 100 | > 100
8 | O=c1c(-c2ccccc2)c(SCCCN2CCN(c3cccc(Cl)c3)CC2)n(-c2ccccc2)c(=S)n1-c1ccccc1 | > 100 | – | > 100 | > 100 | > 100 | > 100 | > 100 | > 100 | > 100 | > 100 | > 100 | – | – | > 100 | > 100 | – | – | – | – | > 100
9 | CCCCN1C=CN2c3nc4cc(C)c(C)cc4n3C(C(=O)OC)=C(C(=O)OC)C12 (stereo not drawn) | > 100 | > 100 | > 100 | > 100 | > 100 | > 100 | – | > 100 | > 100 | – | > 100 | > 100 | > 100 | – | > 100 | > 100 | > 100 | > 100 | > 100 | > 100
